# From patent publication US7601736B2, “Pyridine derivatives, a process for their preparation and a pharmaceutical composition containing the same” (SK Chemicals Co., Ltd., priority 2003, dated 2009)
# Test system: TNF-α
# Experiment: Cytokine inhibitory activity in animal model (LPS-treated SD rats), plasma TNF-α
# Assay type: in vivo, Sprague Dawley (SD) rats
# Details: Rattus norvegicus, 2 h; SD rats, oral, LPS; 40 mg/kg; read-out: TNF-α Inhibition Rate (Conc.)
# Description: Sprague Dawley (SD) rats with body weights of about 180 to about 200 g were fasted (free drinking) and then tested. Test compounds were administered orally at 40 mg/kg and then abdominally administered with LPS 1 μg/mL after 1 hour. After 2 hours, the rats were sacrificed and bloods were collected from abdominal vein, stored at room temperature for about 2 hours, and then centrifuged at 12,000 rpm for about 2 minutes. Thus produced plasma was respectively collected and its TNF-α in each plasma was quantitated using mouse TNF-α ELISA kit based on the amount of recombinant TNF-α in rats. The plate used was coated with anti-rat TNF-α monoclone IgG antibodies. Likewise, for the test of IL-1α, IL-1α in each plasma was quantitated using the above plasma and mouse IL-1α ELISA kit based on the amount of recombinant IL-1α in rats. The plate used was coated with anti-rat IL-1α monoclone IgG antibodies. Further, for the test of IL-6, IL-6 in each plasma was quantitated using the above plasma and mouse IL-6 ELISA kit based on the amount of recombinant IL-6 in rats. Further, for the test of INF-γ, INF-γ in each plasma was quantitated using the above plasma and mouse INF-γ ELISA kit based on the amount of recombinant INF-γ in rats. The plate used was coated with anti-rat INF-γ monoclone IgG antibodies. From the above tests, inhibitory rates on the expression of each cytokine were obtained and they were compared to that of Indomethacin.
row,SMILES,inhibition in vivo at 40 mg/kg
1,"Cc1cc2c(c(-c3ccc(F)cc3)n1)C(=O)OCC2 [Ex. 30, 8-(4-fluorophenyl)-6-methyl-3,4-dihydro-pyrano[3,4-c]pyridine-1-on]",79%

# Same assay, conditions: SD rats, oral, LPS; 40 mg/kg
row,SMILES,TNF-α Inhibition Rate (Conc.)
1,"O=C1c2cnccc2CCN1Cc1ccccc1 [Ex. 117, 2-benzyl-3,4-dihydro-2H-[2,7]naphtyridine-1-on]",69% (40 mg/kg)
2,"COc1ccc(CN2CCc3ccncc3C2=O)cc1 [Ex. 115, 2-(4methoxy-benzyl)-3,4-dihydro-2H-[2,7]naphtyridine-1-on]",43% (40 mg/kg)
3,"CC(=O)Oc1nc(C)cc2c1C(=O)OCC2 [Ex. 21, 6-methyl-1-oxo-3,4-dihydro-1H-pyrano[3,4-c]pyridine-8-yl acetic ester]",93% (40 mg/kg)
4,"CC(=O)Oc1nc(-c2ccccc2)cc2c1C(=O)OCC2 [Ex. 78, 1-oxo-6phenyl-3,4-dihydro-1H-pyrano[3,4-c]pyridine-8-yl acetic ester]",68% (40 mg/kg)

# Same assay, conditions: rat model; in words
row,SMILES,inhibitory activity on production of TNF-α compared to Indomethacin
1,"CC(=O)Oc1nc(C)cc2c1C(=O)OCC2 [Ex. 21, 6-methyl-1-oxo-3,4-dihydro-1H-pyrano[3,4-c]pyridine-8-yl acetic ester]",1.5 or 2 times greater
2,"Cc1cc2c(c(-c3ccc(F)cc3)n1)C(=O)OCC2 [Ex. 30, 8-(4-fluorophenyl)-6-methyl-3,4-dihydro-pyrano[3,4-c]pyridine-1-on]",1.5 or 2 times greater

# Test system: TNF-α
# Experiment: Cytokine inhibitory activity in cells: LPS-induced TNF-α in RAW 264.7
# Assay type: cell-based, murine
# Details: Mus musculus, RAW264.7; RAW 264.7, LPS 1 μg/mL; test conc. 1 μM; read-out: TNF-α Inhibition Rate (%)
# Description: General reagents used were purchased from Sigma-Aldrich chem. Co. and cytokine inhibitory activities were tested as follows. Mediums and reagents used in cell culture were purchased from GIBCO BRL (USA), and mouse TNF-α ELISA kit was purchased from R&D system (USA). The apparatus used ELISA reader (Spectra max-Plus 384, Molecular Device, USA).
# Murine macrophage cell line RAW 264.7 was kindly provided by Korean Tissue Culture Center (KTCC). The cell line was cultured in DMEM medium containing 10% FBS, in a cell culturing device at the condition of 37° C., 5% CO2. First, murine RAW 264.7 was cultured in DMEM medium containing 10% FBS for about 24 hours, and cells were planted 200 μL each in 96 well plates at the concentration of 5×10^5/mL and cultured for about 24 hours. Then, test compounds were treated at various concentrations and then reacted at 37° C. for about 1 hour, wherein 1 μg/mL of lipopolysaccharide (LPS) was added thereto and reacted at 37° C. for about 12 hours. The supernatant was recovered and the amount of murine TNF-α on the medium was quantitated using ELISA kit. Thalidomide was respectively used as a positive and a negative control to compare the activities and the results are shown in the following tables 4a -4c.
row,SMILES,inhibition at 1 µM
1,"Cc1cc2c(c(-c3ccc(F)cc3)n1)C(=O)OCC2 [Ex. 30, 8-(4-fluorophenyl)-6-methyl-3,4-dihydro-pyrano[3,4-c]pyridine-1-on]",100%

# Same assay, conditions: Mus musculus, RAW264.7; RAW 264.7, LPS 1 μg/mL; test conc. 10 μM; read-out: TNF-α Inhibition Rate (%)
row,SMILES,inhibition at 10 µM
1,"Cc1cc2c(c(-c3ccc(F)cc3)n1)C(=O)OCC2 [Ex. 30, 8-(4-fluorophenyl)-6-methyl-3,4-dihydro-pyrano[3,4-c]pyridine-1-on]",100%

# Same assay, conditions: Mus musculus, RAW264.7; RAW 264.7, LPS 1 μg/mL; test conc. 100 μM; read-out: TNF-α Inhibition Rate (%)
row,SMILES,inhibition at 100 µM
1,"Cc1cc2c(c(-c3ccc(F)cc3)n1)C(=O)OCC2 [Ex. 30, 8-(4-fluorophenyl)-6-methyl-3,4-dihydro-pyrano[3,4-c]pyridine-1-on]",100%

# Same assay, conditions: Mus musculus, RAW264.7; RAW 264.7, LPS 1 μg/mL; test conc. 1 mM; read-out: TNF-α Inhibition Rate (%)
row,SMILES,inhibition at 1000 µM
1,"Cc1cc2c(c(-c3ccc(F)cc3)n1)C(=O)OCC2 [Ex. 30, 8-(4-fluorophenyl)-6-methyl-3,4-dihydro-pyrano[3,4-c]pyridine-1-on]",100%

# Same assay, conditions: RAW 264.7, LPS 1 μg/mL; test conc. 1 μM
row,SMILES,TNF-α Inhibition Rate (%)
1,"O=C1c2cnccc2CCN1Cc1ccccc1 [Ex. 117, 2-benzyl-3,4-dihydro-2H-[2,7]naphtyridine-1-on]",10%
2,"COc1ccc(CN2CCc3ccncc3C2=O)cc1 [Ex. 115, 2-(4methoxy-benzyl)-3,4-dihydro-2H-[2,7]naphtyridine-1-on]",50%
3,"CC(=O)Oc1nc(C)cc2c1C(=O)OCC2 [Ex. 21, 6-methyl-1-oxo-3,4-dihydro-1H-pyrano[3,4-c]pyridine-8-yl acetic ester]",9%
4,"CC(=O)Oc1nc(-c2ccccc2)cc2c1C(=O)OCC2 [Ex. 78, 1-oxo-6phenyl-3,4-dihydro-1H-pyrano[3,4-c]pyridine-8-yl acetic ester]",79%

# Same assay, conditions: RAW 264.7, LPS 1 μg/mL; test conc. 10 μM
row,SMILES,TNF-α Inhibition Rate (%)
1,"O=C1c2cnccc2CCN1Cc1ccccc1 [Ex. 117, 2-benzyl-3,4-dihydro-2H-[2,7]naphtyridine-1-on]",18%
2,"COc1ccc(CN2CCc3ccncc3C2=O)cc1 [Ex. 115, 2-(4methoxy-benzyl)-3,4-dihydro-2H-[2,7]naphtyridine-1-on]",59%
3,"CC(=O)Oc1nc(C)cc2c1C(=O)OCC2 [Ex. 21, 6-methyl-1-oxo-3,4-dihydro-1H-pyrano[3,4-c]pyridine-8-yl acetic ester]",15%
4,"CC(=O)Oc1nc(-c2ccccc2)cc2c1C(=O)OCC2 [Ex. 78, 1-oxo-6phenyl-3,4-dihydro-1H-pyrano[3,4-c]pyridine-8-yl acetic ester]",85%

# Same assay, conditions: RAW 264.7, LPS 1 μg/mL; test conc. 100 μM
row,SMILES,TNF-α Inhibition Rate (%)
1,"O=C1c2cnccc2CCN1Cc1ccccc1 [Ex. 117, 2-benzyl-3,4-dihydro-2H-[2,7]naphtyridine-1-on]",29%
2,"COc1ccc(CN2CCc3ccncc3C2=O)cc1 [Ex. 115, 2-(4methoxy-benzyl)-3,4-dihydro-2H-[2,7]naphtyridine-1-on]",65%
3,"CC(=O)Oc1nc(C)cc2c1C(=O)OCC2 [Ex. 21, 6-methyl-1-oxo-3,4-dihydro-1H-pyrano[3,4-c]pyridine-8-yl acetic ester]",34%
4,"CC(=O)Oc1nc(-c2ccccc2)cc2c1C(=O)OCC2 [Ex. 78, 1-oxo-6phenyl-3,4-dihydro-1H-pyrano[3,4-c]pyridine-8-yl acetic ester]",98%

# Same assay, conditions: RAW 264.7, LPS 1 μg/mL; test conc. 1 mM
row,SMILES,TNF-α Inhibition Rate (%)
1,"O=C1c2cnccc2CCN1Cc1ccccc1 [Ex. 117, 2-benzyl-3,4-dihydro-2H-[2,7]naphtyridine-1-on]",35%
2,"COc1ccc(CN2CCc3ccncc3C2=O)cc1 [Ex. 115, 2-(4methoxy-benzyl)-3,4-dihydro-2H-[2,7]naphtyridine-1-on]",78%
3,"CC(=O)Oc1nc(C)cc2c1C(=O)OCC2 [Ex. 21, 6-methyl-1-oxo-3,4-dihydro-1H-pyrano[3,4-c]pyridine-8-yl acetic ester]",77%
4,"CC(=O)Oc1nc(-c2ccccc2)cc2c1C(=O)OCC2 [Ex. 78, 1-oxo-6phenyl-3,4-dihydro-1H-pyrano[3,4-c]pyridine-8-yl acetic ester]",100%

# Same assay, conditions: RAW 264.7; compared to the control compounds
row,SMILES,"inhibitory activity in RAW 264.7 cell line on the production of TNF-α, in words"
1,"Cc1cc2c(c(-c3ccc(F)cc3)n1)C(=O)OCC2 [Ex. 30, 8-(4-fluorophenyl)-6-methyl-3,4-dihydro-pyrano[3,4-c]pyridine-1-on]",superiorities over to the control compounds
2,"CC(=O)Oc1nc(-c2ccccc2)cc2c1C(=O)OCC2 [Ex. 78, 1-oxo-6phenyl-3,4-dihydro-1H-pyrano[3,4-c]pyridine-8-yl acetic ester]",superiorities over to the control compounds

# Test system: ICR (Institute of Cancer Research) mouse
# Experiment: Croton oil-induced ear edema test
# Assay type: in vivo
# Details: oral, 100 mg/kg
# Description: (§1) Male ICR (Institute of Cancer Research) mouse with body weight of about 20 to 30 g were tested wherein each group had 6 mouses. After 1 hour of the oral administration of a test compound, Croton oil (in acetone solution) was coated on one of the ears. After 4 hours, the thickness of the swollen ear in treated group was compared with the other unswollen ear and obtained the average increase rate in thickness of ear by the treatment.
row,SMILES,Inhibition Rate (%)
1,"Cc1ccc(-c2cc(C(F)(F)F)nn2-c2ccc(S(N)(=O)=O)cc2)cc1 [Celecoxib, reference compound]",35%

# Test system: ICR (Institute of Cancer Research) mouse
# Experiment: Arachidonic acid-induced ear edema test
# Assay type: in vivo
# Details: oral, 100 mg/kg
# Description: as §1, with “Arachidonic acid” for “Croton oil”, “1 hour,” for “4 hours,”
row,SMILES,Inhibition Rate (%)
1,"Cc1ccc(-c2cc(C(F)(F)F)nn2-c2ccc(S(N)(=O)=O)cc2)cc1 [Celecoxib, reference compound]",33%

# Test system: ICR (Institute of Cancer Research) mouse
# Experiment: Analgesic test (acetic acid-induced stretchings)
# Assay type: in vivo
# Details: oral, 100 mg/kg
# Description: Male ICR (Institute of Cancer Research) mouse with body weight of about 20 to 30 g were tested wherein each group had 6 mouses. After 1 hour of the oral administration of a test compound, acetic acid (in distilled water) was abdominally administered. For the duration of 10 minutes, the animals were observed regarding the number of stretchings and the number was compared with that of placebo treated group and the result is shown in the following table 7.
row,SMILES,Inhibition Rate (%)
1,"Cc1ccc(-c2cc(C(F)(F)F)nn2-c2ccc(S(N)(=O)=O)cc2)cc1 [Celecoxib, reference compound]",81%
